Test system: RD
Experiment: Cytotoxicity
Type: cell-based, human
Conditions: read-out: 50% Cytotoxic concentration CC50, line of ma-EV-D68

## Cc1cc(-c2noc(C(F)(F)F)n2)ccc1OCCCc1cc(C(=O)N(C)C)no1 [compound 11526092, 3-(3-methyl-4-(3-(3-N,N-dimethylcarbamoyl-isoxazol-5-yl)propoxy)phenyl)-5-trifluoromethyl-1,2,4-oxadiazole]
  CC50: 9.4 µM

— publication PMC10527014 (Antiviral research, 2023)
